# Measured values published in ChEMBL document CHEMBL1201862, “PubChem BioAssay data set” (2004).
#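 48-hour exposure; five concentrations; linearly interpolated endpoints. At the GI50, growth is halved.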 Activity calls are given as the source filed them. Cut-off read from the data, not from the text of the source: active = GI50 up to about 1.1 µM and inactive = higher.
# Assays:
# Assay in all cases: inhibition of tumour cell growth, NCI panel, 48 h
# 786-0 = test system: 786-0
# A498 = test system: A498
# A549 = test system: A549
# ACHN = test system: ACHN
# BT-549 = test system: BT-549
# CAKI-1 = test system: CAKI-1
# CCRF-CEM = test system: CCRF-CEM
# COLO 205 = test system: COLO 205
# DU-145 = test system: DU-145
# EKVX = test system: EKVX
# HCC 2998 = test system: HCC 2998
# HCT-116 = test system: HCT-116
# HCT-15 = test system: HCT-15
# HL-60 = test system: HL-60
# HOP-62 = test system: HOP-62
# HOP-92 = test system: HOP-92
# HT-29 = test system: HT-29
# Hs-578T = test system: Hs-578T
# IGROV-1 = test system: IGROV-1
# K562 = test system: K562
# KM12 = test system: KM12
# LOX IMVI = test system: LOX IMVI
# M14 = test system: M14
# MCF7 = test system: MCF7
# MDA-MB-231 = test system: MDA-MB-231
# MDA-MB-435 = test system: MDA-MB-435
# MDA-N = test system: MDA-N
# MOLT-4 = test system: MOLT-4
# Malme-3M = test system: Malme-3M
# NCI-H226 = test system: NCI-H226
# NCI-H23 = test system: NCI-H23
# NCI-H460 = test system: NCI-H460
# NCI-H522 = test system: NCI-H522
# NCI/ADR-RES = test system: NCI/ADR-RES
# OVCAR-3 = test system: OVCAR-3
# OVCAR-4 = test system: OVCAR-4
# OVCAR-5 = test system: OVCAR-5
# OVCAR-8 = test system: OVCAR-8
# PC-3 = test system: PC-3
# RPMI-8226 = test system: RPMI-8226
# RXF 393 = test system: RXF 393
# SF-268 = test system: SF-268
# SF-295 = test system: SF-295
# SF-539 = test system: SF-539
# SK-MEL-28 = test system: SK-MEL-28
# SK-MEL-2 = test system: SK-MEL-2
# SK-MEL-5 = test system: SK-MEL-5
# SK-OV-3 = test system: SK-OV-3
# SN12C = test system: SN12C
# SNB-19 = test system: SNB-19
# SNB-75 = test system: SNB-75
# SW-620 = test system: SW-620
# T47D = test system: T47D
# TK-10 = test system: TK-10
# U-251 = test system: U-251
# UACC-257 = test system: UACC-257
# UACC-62 = test system: UACC-62
# UO-31 = test system: UO-31
# SR = test system: SR
smiles,measurement,setting,value
C=C1C(OC)=C(OC)C(=O)c2[nH]c3c(OC)cc([N+](=O)[O-])cc3c21,GI50,786-0,37.8 µM (inactive)
same,GI50,A498,> 100 µM (inactive)
same,GI50,A549,> 100 µM (inactive)
same,GI50,ACHN,> 100 µM (inactive)
same,GI50,BT-549,> 100 µM (inactive)
same,GI50,CAKI-1,> 100 µM (inactive)
same,GI50,CCRF-CEM,> 100 µM (inactive)
same,GI50,COLO 205,> 100 µM (inactive)
same,GI50,DU-145,> 100 µM (inactive)
same,GI50,EKVX,62.4 µM (inactive)
same,GI50,HCC 2998,> 100 µM (inactive)
same,GI50,HCT-116,> 100 µM (inactive)
same,GI50,HCT-15,> 100 µM
same,GI50,HL-60,> 100 µM (inactive)
same,GI50,HOP-62,85.7 µM (inactive)
same,GI50,HOP-92,> 100 µM (inactive)
same,GI50,HT-29,> 100 µM (inactive)
same,GI50,Hs-578T,> 100 µM (inactive)
same,GI50,IGROV-1,> 100 µM (inactive)
same,GI50,K562,> 100 µM (inactive)
same,GI50,KM12,> 100 µM (inactive)
same,GI50,LOX IMVI,> 100 µM (inactive)
same,GI50,M14,> 100 µM (inactive)
same,GI50,MCF7,> 100 µM (inactive)
same,GI50,MDA-MB-231,> 100 µM (inactive)
same,GI50,MDA-MB-435,> 100 µM (inactive)
same,GI50,MDA-N,> 100 µM (inactive)
same,GI50,MOLT-4,> 100 µM (inactive)
same,GI50,Malme-3M,> 100 µM (inactive)
same,GI50,NCI-H226,> 100 µM (inactive)
same,GI50,NCI-H23,> 100 µM (inactive)
same,GI50,NCI-H460,> 100 µM (inactive)
same,GI50,NCI-H522,> 100 µM (inactive)
same,GI50,NCI/ADR-RES,> 100 µM (inactive)
same,GI50,OVCAR-3,> 100 µM (inactive)
same,GI50,OVCAR-4,> 100 µM (inactive)
same,GI50,OVCAR-5,> 100 µM (inactive)
same,GI50,OVCAR-8,> 100 µM (inactive)
same,GI50,PC-3,> 100 µM (inactive)
same,GI50,RPMI-8226,> 100 µM (inactive)
same,GI50,RXF 393,37 µM (inactive)
same,GI50,SF-268,> 100 µM (inactive)
same,GI50,SF-295,> 100 µM (inactive)
same,GI50,SF-539,> 100 µM (inactive)
same,GI50,SK-MEL-28,> 100 µM (inactive)
same,GI50,SK-MEL-2,> 100 µM (inactive)
same,GI50,SK-MEL-5,> 100 µM (inactive)
same,GI50,SK-OV-3,> 100 µM (inactive)
same,GI50,SN12C,> 100 µM (inactive)
same,GI50,SNB-19,> 100 µM (inactive)
same,GI50,SNB-75,39.1 µM (inactive)
same,GI50,SW-620,> 100 µM (inactive)
same,GI50,T47D,> 100 µM (inactive)
same,GI50,TK-10,> 100 µM (inactive)
same,GI50,U-251,> 100 µM (inactive)
same,GI50,UACC-257,> 100 µM (inactive)
same,GI50,UACC-62,> 100 µM (inactive)
same,GI50,UO-31,> 100 µM (inactive)
COc1cc(OC)nc(-n2c(N)c(C#N)c3ccc([N+](=O)[O-])cc3c2=O)n1,GI50,786-0,> 100 µM (inactive)
same,GI50,A498,> 100 µM (inactive)
same,GI50,A549,> 100 µM (inactive)
same,GI50,ACHN,> 100 µM (inactive)
same,GI50,BT-549,> 100 µM (inactive)
same,GI50,CAKI-1,> 100 µM (inactive)
same,GI50,CCRF-CEM,> 100 µM (inactive)
same,GI50,COLO 205,> 100 µM (inactive)
same,GI50,DU-145,> 100 µM (inactive)
same,GI50,EKVX,> 100 µM (inactive)
same,GI50,HCC 2998,> 100 µM (inactive)
same,GI50,HCT-116,> 100 µM (inactive)
same,GI50,HCT-15,> 100 µM
same,GI50,HL-60,> 100 µM (inactive)
same,GI50,HOP-62,> 100 µM (inactive)
same,GI50,HOP-92,> 100 µM (inactive)
same,GI50,HT-29,> 100 µM (inactive)
same,GI50,Hs-578T,> 100 µM (inactive)
same,GI50,IGROV-1,79.3 µM (inactive)
same,GI50,KM12,> 100 µM (inactive)
same,GI50,LOX IMVI,> 100 µM (inactive)
same,GI50,M14,> 100 µM (inactive)
same,GI50,MCF7,> 100 µM (inactive)
same,GI50,MDA-MB-231,> 100 µM (inactive)
same,GI50,MDA-MB-435,> 100 µM (inactive)
same,GI50,MDA-N,> 100 µM (inactive)
same,GI50,MOLT-4,> 100 µM (inactive)
same,GI50,NCI-H23,> 100 µM (inactive)
same,GI50,NCI-H460,> 100 µM (inactive)
same,GI50,NCI-H522,18.3 µM (inactive)
same,GI50,NCI/ADR-RES,> 100 µM (inactive)
same,GI50,OVCAR-3,> 100 µM (inactive)
same,GI50,OVCAR-4,> 100 µM (inactive)
same,GI50,OVCAR-5,> 100 µM (inactive)
same,GI50,OVCAR-8,> 100 µM (inactive)
same,GI50,PC-3,> 100 µM (inactive)
same,GI50,RPMI-8226,> 100 µM (inactive)
same,GI50,SF-268,> 100 µM (inactive)
same,GI50,SF-295,> 100 µM (inactive)
same,GI50,SF-539,> 100 µM (inactive)
same,GI50,SK-MEL-28,> 100 µM (inactive)
same,GI50,SK-MEL-2,> 100 µM (inactive)
same,GI50,SK-MEL-5,> 100 µM (inactive)
same,GI50,SN12C,> 100 µM (inactive)
same,GI50,SNB-19,> 100 µM (inactive)
same,GI50,SNB-75,> 100 µM (inactive)
same,GI50,SR,> 100 µM (inactive)
same,GI50,SW-620,> 100 µM (inactive)
same,GI50,T47D,> 100 µM (inactive)
same,GI50,TK-10,> 100 µM (inactive)
same,GI50,U-251,92.3 µM (inactive)
same,GI50,UACC-257,> 100 µM (inactive)
same,GI50,UACC-62,> 100 µM (inactive)
same,GI50,UO-31,> 100 µM (inactive)
